Reference: US11208384B2, “Sulfinylpyridines and their use in the treatment of cancer” (Oblique Therapeutics AB, priority 2017, dated 2021)

Tests used:
[1] = tested on: MDA-MB-231; experiment: Cancer cell viability assay (MTT), MDA-MB-231; type: cell-based; conditions: Homo sapiens, 72 hrs, 4000 cells/well, 10% FBS media
Protocol: (§1) Breast cancer and glioblastoma cell lines were plated 4000 cells/well in 96-well plates in the presence of 10% FBS media. The following day cells were treated with various concentrations of the compound of Example 1 (0.1% DMSO final) and incubated for 72 hrs. After the incubation An MTT assay was performed to access cell viability. Percent of viability was determined using DMSO vehicle and no cell (blank) controls.

[2] = tested on: MDA-MB-231 cells; experiment: Breast cancer cell viability assay (Alamar Blue); type: cell-based; conditions: Homo sapiens, 72 hrs, 10% FBS media containing 25 nM selenite, 2000 cells/well
Protocol: MDA-MB-231 cells were plated 2000 cells/well in 96-well black optical plates in the presence of 10% FBS media containing 25 nM selenite. The following day cells were treated with various concentrations of compounds (0.1% DMSO final) and incubated for 72 hrs. After the incubation Alamar Blue reagent was added to each well and incubated for additional 3 hrs. Fluorescence was read ex:530 nm/em:590 nm, and percent of viability was determined using DMSO vehicle and no cell (blank) controls.

[3] = tested on: U-87 MG; experiment: Cancer cell viability assay (MTT), U-87 MG; type: cell-based; conditions: Homo sapiens, 72 hrs, 4000 cells/well, 10% FBS media
Protocol: as §1

[4] = molecular target: recombinant thioredoxin reductase 1 (TrxR1) (Homo sapiens (Human), UniProt Q16881); experiment: Inhibition of recombinant TrxR1 (DTNB assay); type: biochemical; conditions: 30 nM TrxR1, 250 μM NADPH, 15 minutes incubation, O.D. 412 nm, read-out: TrxR inhibition (IC50)
recombinant thioredoxin reductase 1 (TrxR1), sequence (Q16881 151-649): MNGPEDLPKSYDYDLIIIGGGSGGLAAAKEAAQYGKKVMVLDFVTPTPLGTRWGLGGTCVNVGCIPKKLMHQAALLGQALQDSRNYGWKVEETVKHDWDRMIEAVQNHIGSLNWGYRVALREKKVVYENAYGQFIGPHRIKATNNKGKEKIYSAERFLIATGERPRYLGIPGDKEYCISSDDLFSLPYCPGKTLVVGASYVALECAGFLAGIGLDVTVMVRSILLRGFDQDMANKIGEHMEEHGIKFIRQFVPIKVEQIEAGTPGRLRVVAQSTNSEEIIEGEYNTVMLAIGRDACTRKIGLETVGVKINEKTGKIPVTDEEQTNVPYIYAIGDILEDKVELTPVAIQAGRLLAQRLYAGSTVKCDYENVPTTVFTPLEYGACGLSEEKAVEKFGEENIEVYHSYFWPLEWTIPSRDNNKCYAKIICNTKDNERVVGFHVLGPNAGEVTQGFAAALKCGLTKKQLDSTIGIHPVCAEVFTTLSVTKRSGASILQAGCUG
Protocol: (§2) Small molecule inhibition of recombinant thioredoxin reductase 1 (TrxR1) and gluthathione reductase (GR) was examined in 96-well plate format. 30 nM TrxR1 was incubated in the presence of 250 μM NADPH, 0.1 mg/ml BSA, and various concentrations of compound (1% DMSO final) in 50 mM Tris (pH 7.5) and 2 mM EDTA buffer for 15 minutes. Following the incubation period, 2 mM DTNB was added to each well and the change in O.D. at 412 nm was followed. Percent activity was determined using DMSO vehicle and no TrxR1 (blank) controls. 2 nM GR was incubated in the presence of 250 μM NADPH, 0.1 mg/ml BSA, and various concentrations of compounds (1% DMSO final) in 50 mM Tris (pH 7.5) and 2 mM EDTA buffer for 15 minutes. Following the incubation period, 1 mM GSSG was added to each well and the change in O.D. at 340 nm was followed. Percent activity was determined using DMSO vehicle and no GR (blank) controls.

[5] = molecular target: recombinant gluthathione reductase (GR) (Homo sapiens (Human), UniProt P00390); experiment: Inhibition of recombinant GR (GSSG assay); type: biochemical; conditions: 2 nM GR, 250 μM NADPH, 15 minutes incubation, O.D. 340 nm
recombinant gluthathione reductase (GR), sequence (P00390 44-522): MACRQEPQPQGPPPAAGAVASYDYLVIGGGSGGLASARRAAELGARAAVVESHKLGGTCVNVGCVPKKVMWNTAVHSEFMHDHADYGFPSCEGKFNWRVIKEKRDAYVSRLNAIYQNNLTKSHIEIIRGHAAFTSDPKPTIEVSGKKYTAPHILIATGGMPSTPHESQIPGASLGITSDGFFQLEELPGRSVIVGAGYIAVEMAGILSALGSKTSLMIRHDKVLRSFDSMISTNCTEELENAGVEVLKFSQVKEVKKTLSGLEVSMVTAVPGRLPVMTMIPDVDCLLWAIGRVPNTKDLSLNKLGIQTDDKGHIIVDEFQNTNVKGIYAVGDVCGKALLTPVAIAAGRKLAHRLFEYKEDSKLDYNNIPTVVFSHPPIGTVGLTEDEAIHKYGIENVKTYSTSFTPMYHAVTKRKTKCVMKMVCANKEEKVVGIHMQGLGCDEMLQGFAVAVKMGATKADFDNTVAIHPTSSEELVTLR
Protocol: as §2

[6] = tested on: MDA-MB-468; experiment: Cancer cell viability assay (MTT), MDA-MB-468; type: cell-based; conditions: Homo sapiens, 72 hrs, 4000 cells/well, 10% FBS media
Protocol: as §1

## COc1ccc([N+](=O)[O-])c([S+]([O-])c2ccc(Cl)cc2)n1 (stereo not drawn) [Example 1, 2-((4-Chlorophenyl)sulfinyl)-6-methoxy-3-nitropyridine]
[1]
  IC50: 5.26 µM
[2]
  IC50: 2.99 µM
[3]
  IC50: 6.76 µM
[4]
  IC50: 0.00316 µM
[5]
  IC50: 41.3 µM
[6]
  IC50: 3.86 µM
